The text below walks through data of patent US9428452B2, “Compounds” (Glaxo Group Limited, priority 2012, dated 2016).

Common to all, as to format: cell-based
Experiment [1] deals with IL-17A secreted from antiCD3/CD28 stimulated Peripheral Blood Mononuclear cells (PBMC). Put plainly: Peripheral Blood Mononucleocyte Cell Assay (PBMC Assay - IL-17). The note with it: Homo sapiens, 48 h, IL-17A release, read-out: mean pIC50 (converted). How it is done:
Peripheral Blood Mononucleocvte Cell Assay (PBMC Assay—IL-17) […]
This assay is designed to measure levels of IL-17A secreted from antiCD3/CD28 stimulated frozen Peripheral Blood Mononuclear cells (PBMC) isolated from human blood with the aim of identifying inhibitors of IL-17A release.
2. The compounds for screening are dispensed into a master plate at 10 mM top concentration which are serially diluted 1:3 across 11 points in DMSO, then 500 nL is transferred into a 384-well flat-bottomed Greiner plate to which 50 uL of cell suspension is added: for the single shot screening the highest concentration of compound is 10^−5M; for 11 point full curve dose response studies the highest concentration is 10^−4 M.
As a low control, DMSO (as supplied, for example, by VWR) (final concentration 1%) in column 6 (16 points).
As a high control, 5-(4-fluorophenyl)-2-ureidothiophene-3-carboxamide (obtainable from, for example, Sigma) at a final concentration of 10^−4 M in DMSO should be used in column 18 (16 points).
9. Make the cell suspension at the concentration 8×10^5 cells/mL to give a final number of 40,000 cells/well.
1. Add well mixed CD3/CD28 Dynabeads (as supplied, for example, by Dynal) to achieve ratio bead:cell=2:1 (ie. a dilution of 1 in 20). Mix thoroughly.
2. Dispense the suspension into the 384 Assay Plates using Multidrop (50 uL per well). If the volume of cell suspension is large, mix the suspension after dispensing into every other plate.
3. Cover the plates with the lids and place them to the humidified incubator (37° C., 5% CO2) for 48 hours.
1. Transfer 10 uL of supernatants from assay plates to the MSD plates using Cybiwell. Ensure that all wells are covered with the solution. Tap the plate gently, if some of the wells are not covered with the supernatant.
3. Add 10 uL of MSD IL-17 detecting antibody using multidrop (1 ug/mL in D-PBS without Ca^2+ and Mg^2+ (supplied, for example, by Gibco)).
4. Cover the plates with adhesive foil and incubated with shaking for 3 hours at room temperature
7. Add 35 uL of MSD Read Buffer T×2 using multidrop.
8. Read plates on MSD MA6000 reader using the 384 well plate protocol as per manufacturer's instructions.

A further experiment relates to IL-17A mRNA expression. Put plainly: Ex-vivo human skin model, IL-17A mRNA expression. To be noted: four different donors, compound 10 μM. On the procedure:
(§1) Fresh ex vivo human skin from healthy bariatric patients, that underwent abdominoplasty skin removal, was de-fatted and dermatomed at 750 μm. Dermatomed skin was incubated twice for 5-10 minutes at room temperature in PBS containing a antibiotic/antimycotic solution: Fungizone (Invitrogen #15290018), PSG (Fisher #BW17718R) and Gentamicin (Invitrogen #15750060). Skin was treated aseptically from this point on. Individual skin samples were obtained by 10 mm punch biopsy and placed in a 0.4 μm PCF membrane transwell (Millicell #PIHP01250) containing 30 μl of a 64% bovine collagen solution. After a 30 minute incubation at 37° C., which allows the collagen solution time to set, skin samples on transwells were transferred to 6-well plates (1 sample per well) and the lower chamber filled with 1 ml complete media (Cornification Media)+hydrocortisone (final concentration of 0.4 μg/ml) with or without test compounds at 10 μM (day −3) and allowed to rest overnight (16-18 h) at 37° C. Next, media was aspirated from the lower chamber, replaced with 1 ml complete media without hydrocortisone and incubated at 37° C. for 1 h. This constituted a ‘wash’ step. Following the hydrocortisone washout, media was again aspirated from the lower chamber and replaced with 1.0 ml complete media without hydrocortisone with or without GSK compounds at 10 μM (day −2). Cultures were incubated at 37° C. in a humidified chamber and media was refreshed one more day (day-1). The following day (day-0), cultures were stimulated for 24 h with a freshly made Th17 cytokine cocktail (CD3, 1 μg/ml, CD28, 2 μg/ml, IL-1b, 10 ng/ml, IL-6, 5 ng/ml, TGFb, 1 ng/ml, IL-21, 10 ng/ml, anti-IL-4, 1 μg/ml and anti-INFg, 1 μg/ml) with or without test compounds at 10 μM. Upon harvest (day +1), skin samples were minced with a razor blade and transferred to 1.5 ml RNAse-free tubes with 1 ml RNAlater solution until later analysis by RT-PCR (stored at −80 C).
(§2) Total RNA was isolated from about 30-40 mg of tissue using Qiagen's (Cat #74106) Mini RNA Isolation kit. Briefly, tissue was homogenized in the Precellys-24 machine using 300 μL of RLT buffer supplemented with 1% 2-Beta-Mercapto-Ethanol at 6300 rpm for 30 seconds for 6 cycles with a 2-minute ice break. 600 μL of water containing Proteinase K was added to the homogenate and digested at 55 C for 15 minutes. Digested tissue was spun down for 3 minutes at 10,000×g and the supernantant was used for RNA isolation using Qiagen's RNeasy mini columns according to manufacturer's protocol. 100 ng of RNA was used as template in a 20 μL PCR volume using Applied Biosciences RNA-to-CT 1 Step kit (AB Catalog #4392938) as well as the specific TaqMan probe for each gene to be quantified. Life Technologies FAM labeled Probes Catalog Numbers are as follows: ACTb=Hs01060665_g1, IL-17A=Hs00174383_m1, IL-17F=Hs00369400_m1, IL-22=Hs01574154_m1. All probes used (except for ACTb) expand an Exon. Applied Biosciences' Master Mix has a ROX dye internal control. OneStepPlus PCR machine was used for both the RT step and the 40 amplification cycles. RNA levels of gene of interest's relative expression were calculated using the Delta Delta CT formula.
(§3) First delta: Normalized to ACTb gene expression
(§4) Second delta: Normalized to sample 13 (Day 0+DMSO) for the gene of interest.

A further experiment deals with IL-17F mRNA expression. Description: Ex-vivo human skin model, IL-17F mRNA expression. The note with it: four different donors, compound 10 μM. How it is done:
as §1, §2, §3, §4

The next experiment concerns IL-22 mRNA expression. Description: Ex-vivo human skin model, IL-22 mRNA expression. To be noted: four different donors, compound 10 μM. How it is done:
as §1, §2, §3, §4

Each structure is given as a SMILES string. Counter-ions that a name gives are not always drawn.

`Cc1ccc(N(CC(C)C)S(=O)(=O)c2ccc(C(O)CN3CCOCC3)cc2)c(C)c1` (single isomer, unassigned) [Example E122, N-(2,4-dimethylphenyl)-4-(1-hydroxy-2-morpholinoethyl)-N-isobutylbenzenesulfonamide]: the IC50 in experiment [1] was less than 1 µM.
Same read-out and setting: as for `Cc1ccc(N(CC(C)C)S(=O)(=O)c2ccc(OCC3CCNCC3)cc2)c(C)c1` [Example E8, N-(2,4-dimethylphenyl)-N-isobutyl-4-(piperidin-4-ylmethoxy)benzenesulfonamide, Trifluoroacetic acid salt], the figure is less than 1 µM; as for `Cc1ccc(N(CC(C)C)S(=O)(=O)c2ccc(OCC3(C)COCC(=O)N3)cc2)c(C)c1` (stereo not shown) [Example E11], less than 1 µM.
Still for that read-out and setting: to `Cc1ccc(N(CC(C)C)S(=O)(=O)c2ccc(N3CCOCC3)cc2)c(C)c1` [Example E33] belongs less than 1 µM; to `Cc1ccc(N(CC(C)C)S(=O)(=O)c2ccc(OC[C@H]3NCCO[C@@H]3C)cc2)c(C)c1` [Example E36], less than 1 µM.
Same read-out and setting: as for `Cc1ccc(N(CC(C)C)S(=O)(=O)c2ccc(OCC3CCC(C)CC3)cc2)c(C)c1` (stereo not shown) [Example E47], the figure is greater than 100 µM.
On to `Cc1ccc(N(CC(C)C)S(=O)(=O)c2ccc(C(O)CN3CCOCC3)c(Cl)c2)c(C)c1` (stereo not shown) [Example E84], for which, in experiment [1], the IC50 is less than 1 µM.
Still for that read-out and setting: as for `Cc1ccc(N(CC(C)C)S(=O)(=O)c2ccc(C(O)CN3CCOCC3)c(F)c2)c(C)c1` (stereo not shown) [Example E87], the figure is less than 1 µM.
For the compound `Cc1ccc(N(CC(C)C)S(=O)(=O)c2ccc(C(O)CN3CCOCC3)cc2C)c(C)c1` (stereo not shown) [Example E88], the IC50 in experiment [1] was less than 1 µM.
Still for that read-out and setting: as for `Cc1ccc(N(CC(C)C)S(=O)(=O)c2ccc(C(CO)N3CCOCC3)c(C)c2)c(C)c1` (stereo not shown) [Example E89, N-(2,4-dimethylphenyl)-4-(2-hydroxy-1-morpholinoethyl)-N-isobutyl-3-methylbenzenesulfonamide], the figure is less than 1 µM.
For the compound `Cc1ccc(N(CC(C)C)S(=O)(=O)c2ccc(C(O)CN3CCOCC3)c(C)c2)c(C)c1` (stereo not shown) [Example E90, N-(2,4-dimethylphenyl)-4-(1-hydroxy-2-morpholinoethyl)-N-isobutyl-3-methylbenzenesulfonamide], the IC50 in experiment [1] was less than 1 µM.
On the same count and under the same terms, as for `CCc1ccc(N(CC(C)C)S(=O)(=O)c2ccc(C(O)CN3CCOCC3)cc2)cc1` (stereo not shown) [Example E113, N-(4-ethylphenyl)-4-(1-hydroxy-2-morpholinoethyl)-N-isobutylbenzenesulfonamide], the figure is less than 1 µM; as for `Cc1ccc(N(CC(C)C)S(=O)(=O)c2ccc(C(O)CN3CCOCC3)cc2)c(C)c1` (stereo not shown) [Example E120, N-(2,4-dimethylphenyl)-4-(1-hydroxy-2-morpholinoethyl-N-isobutylbenzenesulfonamide hydrochloride], less than 1 µM.
On to `CCc1ccc(N(CC(C)C)S(=O)(=O)c2ccc(OCC3CCOCC3)c(CO)c2)cc1` [Example E124, N-(4-ethylphenyl)-3-(hydroxymethyl)-N-isobutyl-4-((tetrahydro-2H-pyran-4-yl)methoxy)benzenesulfonamide], for which the “gene transcription of il17a (result in words)” value with IL-17A mRNA expression is reported as “inhibited”. The “gene transcription of il17f (result in words)” value in the experiment with IL-17F mRNA expression was “inhibited”. For the same compound, the “gene transcription of il22 (result in words)” value in the experiment with IL-22 mRNA expression is “inhibited”.
